Experiments:
[1] = Visual assessment of thioglycolipid aggregation and hydrogel formation; format: physicochemical; parameters: key to Visual assessment of aggregation and gelation: G = gel; F = fibrous aggregation; C = clear solution; O = cloudy solution; details: for Hydrogelation on quenching: quenched at temperatures <20° C.
Protocol: Preparation of Thioglycolipid Solutions and Hydrogel Fabrication. Aqueous solutions of thioglycolipids were prepared by weighing 2-3 mg of thioglycolipids and adding an appropriate volume of water to make solution samples at desired concentrations in vials. The vials were capped, sealed with Parafilm, and heated to 75° C. (or 85° C. for LacSC12) until the thioglycolipids were completely dissolved, which typically required about 1 min. The samples were then allowed to cool to ambient temperature. Above some minimal concentration, the solution forms hydrogels upon cooling (FIG. 1). While hydrogelation happens in under 1 min, the gels were allowed to equilibrate at room temperature for 15 min before any analysis. To make metastable thiocellobiosides gels, the samples were quenched at −4° C. after dissolution at 75° C. Although the metastable hydrogels also formed in under 1 min, the gels were allowed to equilibrate at −4° C. for 15 min before analysis.
Visual Assessment of Thioglycolipid Hydrogel Formation. A wide range of thioglycolipid solutions were evaluated to establish concentration conditions (wt %) under which hydrogelation occurs and to assess the formation of other phases. For LacSC8 and LacSC12 solutions at concentrations <0.5 wt %, the solutions were either clear (C) or contain large aggregates (O) (i.e., cloudy). These solutions formed partial hydrogels surrounded by clear solution between 0.5 but <1 wt %, and were completely gelled at concentrations of 1 wt % and greater. Solutions of LacSC10 at <2 wt % formed partial hydrogels surrounded by clear liquid but were completely gelled at or above 2 wt %. […] CelSC10 and CelSC12 solutions formed settled fibrous aggregates in clear solution after equilibrating at ambient temperature overnight. […] If retained at 5° C. , the CelSC10 and CelSC12 gels were stable for at least 6 months. […] Powder x-ray diffraction confirmed that these fibrous aggregates were crystalline. Overall, the thioglycolipid concentration at which hydrogelation can be observed can be as low as 0.05 wt %, depending on thioglycolipid system, compared to the typical concentration for hydrogelation of at least 1 wt % commonly reported in the literature, although 0.25-2 wt % is the concentration range wherein these thioglycolipid solutions became fully hydrogelled. The existence of metastable hydrogels and the ability to tune the transformation of hydrogels into crystals may allow their potential use as smart materials for different applications.

[2] = Differential scanning calorimetry of hydrogels (gel-sol phase transition); format: physicochemical; details: 1 wt % hydrogel; for Phase transition temperature: DSC heating 5° C. per min; for Enthalpy (J/g hydrogel) / Enthalpy (kJ/mol thioglycolipids): gel-sol transition
Protocol: Differential Scanning calorimetry. A Mettler Toledo DSC 823e differential scanning calorimeter, equipped with cooling apparatus, was used for measurement of the phase transition temperature and enthalpy of the gels. Hydrogel samples were first prepared using the fabrication method described above. Then, they were heated to 75° C. (or 85° C. for LacSC12) until they were in the solution state and then pipetted into aluminum, 40 μL DSC pans and capped with lids. The amount of hydrogel in each aluminum pan was controlled to about 6-8 mg. The pans were maintained at 85° C. for 1 min to ensure the samples were in the solution state. Then, they were cooled to 5° C. and maintained at this temperature for 20 min to ensure the formation of hydrogels. […], the samples were heated from 5° C. to 85° C. at a heating rate at 5° C. per min.
Thermal Properties by DSC. Differential scanning calorimetry (DSC) was used to determine the phase transition temperature as well as to explore the possible existence of other lyotropic phases. DSC involves monitoring the enthalpy change during a phase transition, which can be used as a measure of hydrogel stability. The results (Table 2) indicated an endothermic transition between 30° C. and 80° C. for all thioglycolipid hydrogels studied, and these transitions matched those observed visually in bulk solutions. Overall, hydrogels with longer carbon chains had higher thermostability (i.e., higher phase transition temperature). In addition, the LacSCx (x=10,12) hydrogels had higher thermostability than the CelSCx (x=10,12) hydrogels, despite similar phase transition enthalpies. […] However, the LacSC12 and CelSC12 hydrogels required twice the enthalpy compared to the other three.

[3] = thioglycolipid concentration 0.05 wt %, room temperature
[4] = thioglycolipid concentration 0.1 wt %, room temperature
[5] = thioglycolipid concentration 0.25 wt %, room temperature
[6] = thioglycolipid concentration 0.5 wt %, room temperature
[7] = thioglycolipid concentration 0.75 wt %, room temperature
[8] = thioglycolipid concentration 1 wt %, room temperature
[9] = thioglycolipid concentration 2 wt %, room temperature
[10] = thioglycolipid concentration 5 wt %, room temperature
[11] = thioglycolipid concentration 10 wt %, room temperature

Row | SMILES | Visual state of solutions over all concentrations studied ([1]; room temperature, 0.05-10 wt %) | Visual assessment of aggregation and gelation [1, 3] | Visual assessment of aggregation and gelation [1, 4] | Visual assessment of aggregation and gelation [1, 5] | Visual assessment of aggregation and gelation [1, 6] | Visual assessment of aggregation and gelation [1, 7] | Visual assessment of aggregation and gelation [1, 8] | Visual assessment of aggregation and gelation [1, 9] | Visual assessment of aggregation and gelation [1, 10] | Visual assessment of aggregation and gelation [1, 11] | Phase transition temperature [2] | Enthalpy (J/g hydrogel) [2] [J/g hydrogel] | Enthalpy (kJ/mol thioglycolipids) [2] [kJ/mol thioglycolipids] | Hydrogelation on quenching [1]
1 | CCCCCCCCS[C@@H]1O[C@H](CO)[C@@H](O[C@@H]2O[C@H](CO)[C@@H](O)[C@H](O)[C@H]2O)[C@H](O)[C@H]1O [CelSC8] | remained as clear solutions at all concentrations studied | C | C | C | C | C | C | C | C | C |  |  |  | 
2 | CCCCCCCCCCS[C@@H]1O[C@H](CO)[C@@H](O[C@@H]2O[C@H](CO)[C@@H](O)[C@H](O)[C@H]2O)[C@H](O)[C@H]1O [CelSC10] |  | F | F | G or F | G or F | G or F | G or F | G or F | G or F | G or F | 31-37 °C | 0.18 ± 0.01 | 9.0 ± 0.6 | completely hydrogelled
3 | CCCCCCCCCCCCS[C@@H]1O[C@H](CO)[C@@H](O[C@@H]2O[C@H](CO)[C@@H](O)[C@H](O)[C@H]2O)[C@H](O)[C@H]1O [CelSC12] |  | F | F | G or F | G or F | G or F | G or F | G or F | G or F | G or F | 42-54 °C | 0.42 ± 0.06 | 22.3 ± 3.3 | completely hydrogelled
4 | CCCCCCCCS[C@@H]1O[C@H](CO)[C@@H](O[C@@H]2O[C@H](CO)[C@H](O)[C@H](O)[C@H]2O)[C@H](O)[C@H]1O [LacSC8] |  | C | C | C | G + C | G + C | G | G | G | G | 38-46 °C | 0.20 ± 0.03 | 9.2 ± 1.4 | 

Reference: patent publication US20240181136A1, “LOW MOLECULAR WEIGHT HYDROGELS COMPRISING THIOGLYCOLIPIDS” (ARIZONA BOARD OF REGENTS ON BEHALF OF THE UNIVERSITY OF …, priority 2021, published 2024)
